Measurements published in ChEMBL document CHEMBL3885881, “DrugMatrix”.

Organism: Rattus norvegicus
Experiment: DrugMatrix - Regimen: Daily Repeat
Format: toxicity, organism-based, Sprague-Dawley
Design: regimen Daily Repeat, gender Male, age 6-8 weeks
Settings: in vivo, po, route oral GAVAGE, vehicle 100 % WATER; for ABSOLUTE BASOPHIL / ABSOLUTE EOSINOPHIL / ABSOLUTE LYMPHOCYTE / ABSOLUTE MONOCYTE / ABSOLUTE SEGMENTED NEUTROPHIL / BASOPHIL / EOSINOPHIL / ERYTHROCYTE COUNT / HEMATOCRIT / HEMOGLOBIN / LEUKOCYTE COUNT / LYMPHOCYTE / MEAN CORPUSCULAR HEMOGLOBIN / MEAN CORPUSCULAR HEMOGLOBIN CONCENTRATION / MEAN CORPUSCULAR VOLUME / MONOCYTE / NEUTROPHIL / NUCLEATED RED BLOOD CELLS / PLATELET COUNT: tissue Blood; for ALANINE AMINOTRANSFERASE / ALBUMIN / ALKALINE PHOSPHATASE / ASPARTATE AMINOTRANSFERASE / BLOOD UREA NITROGEN / CARBON DIOXIDE / CHLORIDE / CHOLESTEROL / CREATINE PHOSPHOKINASE / CREATININE / GLUCOSE / LACTATE DEHYDROGENASE / LIPASE / PHOSPHORUS / POTASSIUM / SODIUM / TOTAL BILIRUBIN / TOTAL PROTEIN / URIC ACID: tissue Plasma
[1] = 0 mg/kg, 72 h, dose level Control, time 3 day
[2] = 0 mg/kg, 120 h, dose level Control, time 5 day
[3] = 15 mg/kg, 72 h, dose level Low, time 3 day
[4] = 15 mg/kg, 120 h, dose level Low, time 5 day

## COC(=O)C1=C(C)NC(C)=C(C(=O)OCC(C)C)C1c1ccccc1[N+](=O)[O-] (configuration not stated) [NISOLDIPINE]
[1]
  ABSOLUTE BASOPHIL: 0 CELLS/uL
  ABSOLUTE EOSINOPHIL: 0 CELLS/uL
  ABSOLUTE LYMPHOCYTE: 7802.17 CELLS/uL
  ABSOLUTE MONOCYTE: 13.5 CELLS/uL
  ABSOLUTE SEGMENTED NEUTROPHIL: 617.67 CELLS/uL
  BASOPHIL: 0%
  EOSINOPHIL: 0%
  ERYTHROCYTE COUNT: 5.35 x10E6/uL
  HEMATOCRIT: 33.02%
  HEMOGLOBIN: 12.88 G/DL
  LEUKOCYTE COUNT: 8.43 x10E3/uL
  LYMPHOCYTE: 92.67%
  MEAN CORPUSCULAR HEMOGLOBIN: 24.12 pg
  MEAN CORPUSCULAR HEMOGLOBIN CONCENTRATION: 39.03 G/DL
  MEAN CORPUSCULAR VOLUME: 61.8 fL
  MONOCYTE: 0.17%
  NEUTROPHIL: 7.17%
  NUCLEATED RED BLOOD CELLS: 0 /100WBC
  PLATELET COUNT: 1124.83 x10E3/uL
  ALANINE AMINOTRANSFERASE: 54.17 u/L
  ALBUMIN: 4.07 G/DL
  ALKALINE PHOSPHATASE: 383.83 u/L
  ASPARTATE AMINOTRANSFERASE: 82.17 u/L
  BLOOD UREA NITROGEN: 13.67 mg/dL
  CARBON DIOXIDE: 31 mmol/L
  CHLORIDE: 100.83 MEQ/L
  CHOLESTEROL: 65.17 mg/dL
  CREATINE PHOSPHOKINASE: 228.33 u/L
  CREATININE: 0.12 mg/dL
  GLUCOSE: 148 mg/dL
  LACTATE DEHYDROGENASE: 97.83 u/L
  LIPASE: 9.17 u/L
  PHOSPHORUS: 9.75 mg/dL
  POTASSIUM: 5.85 MEQ/L
  SODIUM: 147.02 MEQ/L
  TOTAL BILIRUBIN: 0.18 mg/dL
  TOTAL PROTEIN: 6.1 G/DL
  URIC ACID: 0.5 mg/dL
[2]
  ABSOLUTE BASOPHIL: 0 CELLS/uL
  ABSOLUTE EOSINOPHIL: 0 CELLS/uL
  ABSOLUTE LYMPHOCYTE: 10538 CELLS/uL
  ABSOLUTE MONOCYTE: 15.83 CELLS/uL
  ABSOLUTE SEGMENTED NEUTROPHIL: 762.83 CELLS/uL
  BASOPHIL: 0%
  EOSINOPHIL: 0%
  ERYTHROCYTE COUNT: 5.49 x10E6/uL
  HEMATOCRIT: 34.63%
  HEMOGLOBIN: 13.72 G/DL
  LEUKOCYTE COUNT: 11.32 x10E3/uL
  LYMPHOCYTE: 92.67%
  MEAN CORPUSCULAR HEMOGLOBIN: 24.97 pg
  MEAN CORPUSCULAR HEMOGLOBIN CONCENTRATION: 39.57 G/DL
  MEAN CORPUSCULAR VOLUME: 63.05 fL
  MONOCYTE: 0.17%
  NEUTROPHIL: 7.17%
  NUCLEATED RED BLOOD CELLS: 0.17 /100WBC
  PLATELET COUNT: 802 x10E3/uL
  ALANINE AMINOTRANSFERASE: 50.5 u/L
  ALBUMIN: 4.07 G/DL
  ALKALINE PHOSPHATASE: 336.83 u/L
  ASPARTATE AMINOTRANSFERASE: 81 u/L
  BLOOD UREA NITROGEN: 14.17 mg/dL
  CARBON DIOXIDE: 32 mmol/L
  CHLORIDE: 98.33 MEQ/L
  CHOLESTEROL: 69.17 mg/dL
  CREATINE PHOSPHOKINASE: 253.33 u/L
  CREATININE: 0.13 mg/dL
  GLUCOSE: 153.67 mg/dL
  LACTATE DEHYDROGENASE: 157 u/L
  LIPASE: 9 u/L
  PHOSPHORUS: 10.78 mg/dL
  POTASSIUM: 6.11 MEQ/L
  SODIUM: 144.57 MEQ/L
  TOTAL BILIRUBIN: 0.15 mg/dL
  TOTAL PROTEIN: 6.05 G/DL
  URIC ACID: 0.73 mg/dL
[3]
  ABSOLUTE BASOPHIL: 0 CELLS/uL
  ABSOLUTE EOSINOPHIL: 0 CELLS/uL
  ABSOLUTE LYMPHOCYTE: 6241.33 CELLS/uL
  ABSOLUTE MONOCYTE: 67 CELLS/uL
  ABSOLUTE SEGMENTED NEUTROPHIL: 425 CELLS/uL
  BASOPHIL: 0%
  EOSINOPHIL: 0%
  ERYTHROCYTE COUNT: 5.19 x10E6/uL
  HEMATOCRIT: 32.73%
  HEMOGLOBIN: 12.7 G/DL
  LEUKOCYTE COUNT: 6.73 x10E3/uL
  LYMPHOCYTE: 92.67%
  MEAN CORPUSCULAR HEMOGLOBIN: 24.5 pg
  MEAN CORPUSCULAR HEMOGLOBIN CONCENTRATION: 38.83 G/DL
  MEAN CORPUSCULAR VOLUME: 63.1 fL
  MONOCYTE: 1%
  NEUTROPHIL: 6.33%
  NUCLEATED RED BLOOD CELLS: 0 /100WBC
  PLATELET COUNT: 1002.33 x10E3/uL
  ALANINE AMINOTRANSFERASE: 56 u/L
  ALBUMIN: 4.03 G/DL
  ALKALINE PHOSPHATASE: 297.33 u/L
  ASPARTATE AMINOTRANSFERASE: 80.67 u/L
  BLOOD UREA NITROGEN: 11.67 mg/dL
  CARBON DIOXIDE: 30.67 mmol/L
  CHLORIDE: 100 MEQ/L
  CHOLESTEROL: 89.67 mg/dL
  CREATINE PHOSPHOKINASE: 318.67 u/L
  CREATININE: 0.11 mg/dL
  GLUCOSE: 147.67 mg/dL
  LACTATE DEHYDROGENASE: 95.33 u/L
  LIPASE: 13 u/L
  PHOSPHORUS: 9.1 mg/dL
  POTASSIUM: 5.7 MEQ/L
  SODIUM: 145.35 MEQ/L
  TOTAL BILIRUBIN: 0.1 mg/dL
  TOTAL PROTEIN: 5.77 G/DL
  URIC ACID: 0.47 mg/dL
[4]
  ABSOLUTE BASOPHIL: 0 CELLS/uL
  ABSOLUTE EOSINOPHIL: 0 CELLS/uL
  ABSOLUTE LYMPHOCYTE: 9912 CELLS/uL
  ABSOLUTE MONOCYTE: 68 CELLS/uL
  ABSOLUTE SEGMENTED NEUTROPHIL: 453.33 CELLS/uL
  BASOPHIL: 0%
  EOSINOPHIL: 0%
  ERYTHROCYTE COUNT: 5.6 x10E6/uL
  HEMATOCRIT: 34.7%
  HEMOGLOBIN: 13.63 G/DL
  LEUKOCYTE COUNT: 10.43 x10E3/uL
  LYMPHOCYTE: 95.33%
  MEAN CORPUSCULAR HEMOGLOBIN: 24.43 pg
  MEAN CORPUSCULAR HEMOGLOBIN CONCENTRATION: 39.3 G/DL
  MEAN CORPUSCULAR VOLUME: 62.07 fL
  MONOCYTE: 0.67%
  NEUTROPHIL: 4%
  NUCLEATED RED BLOOD CELLS: 0 /100WBC
  PLATELET COUNT: 1086 x10E3/uL
  ALANINE AMINOTRANSFERASE: 51 u/L
  ALBUMIN: 4.13 G/DL
  ALKALINE PHOSPHATASE: 346 u/L
  ASPARTATE AMINOTRANSFERASE: 74 u/L
  BLOOD UREA NITROGEN: 13.67 mg/dL
  CARBON DIOXIDE: 36.67 mmol/L
  CHLORIDE: 98.67 MEQ/L
  CHOLESTEROL: 67.33 mg/dL
  CREATINE PHOSPHOKINASE: 223.67 u/L
  CREATININE: 0.13 mg/dL
  GLUCOSE: 139.67 mg/dL
  LACTATE DEHYDROGENASE: 96.33 u/L
  LIPASE: 9 u/L
  PHOSPHORUS: 9.5 mg/dL
  POTASSIUM: 6.07 MEQ/L
  SODIUM: 144.53 MEQ/L
  TOTAL BILIRUBIN: 0.17 mg/dL
  TOTAL PROTEIN: 6.17 G/DL
  URIC ACID: 0.67 mg/dL
